Legend:
Settings in all cases: Na2HPO4-citric acid buffer, pH 5.0, 40 °C, 15 min, 5–150 mM L-Glu
GADZ11 = test system: GADZ11
From the text: HPLC of GABA (DABS-Cl derivatisation), initial rate nonlinear fit on GADZ11

GADZ1 = test system: GADZ1
From the text: HPLC of GABA (DABS-Cl derivatisation), initial rate nonlinear fit on GADZ1

GADZ20 = test system: GADZ20
From the text: HPLC of GABA (DABS-Cl derivatisation), initial rate nonlinear fit on GADZ20

For `N[C@@H](CCC(=O)O)C(=O)O` [L-Glu], which Km (GADZ11) is on record?
Its Km is 52.4 ± 5.44 mM.

What about the Km (GADZ1) of the same compound?
The Km was 45.4 ± 8.63 mM.

What about the Km (GADZ20) of the same compound?
Its Km is 13.3 ± 1.95 mM.
